Assay results: PubChem BioAssay AID330 (DTP/NCI, 2004)
Where “and” joins values, the source holds several entries; their conditions need not be identical. Identical values can stand only once. Inconclusive results and toxic doses are left out. The calls were made as follows: active = survival T/C of 150% or more; inactive = T/C below 125% in these data.

Tested on: P388 leukemia ip, CD2F1 mice, survival T/C
Assay: NCI In Vivo Anticancer Drug Screen. Data for tumor model P388 Leukemia (intraperitoneal) in CD2F1 (CDF1) mice
Conditions: endpoint: median survival time, higher = longer survival
Summary of the method: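 Mice carrying the transplanted tumor received test compound or vehicle. Survival was recorded in each group, and the value is the treated-group measurement divided by that of the vehicle-treated control group.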

[1] = dose: 100.0 mg/kg/injection, schedule: Q01DX001 (ip), vehicle: saline with Tween-80
[2] = dose: 200.0 mg/kg/injection, schedule: Q01DX001 (ip), vehicle: saline with Tween-80
[3] = dose: 400.0 mg/kg/injection, schedule: Q01DX001 (ip), vehicle: saline with Tween-80
[4] = dose: 50.0 mg/kg/injection, schedule: Q01DX005 (ip), vehicle: Klucel (hydroxypropylcellulose) (HPC)
[5] = dose: 100.0 mg/kg/injection, schedule: Q01DX005 (ip), vehicle: Klucel (hydroxypropylcellulose) (HPC)
[6] = dose: 200.0 mg/kg/injection, schedule: Q01DX005 (ip), vehicle: Klucel (hydroxypropylcellulose) (HPC)
[7] = dose: 12.5 mg/kg/injection, schedule: Q01DX009 (ip), vehicle: saline
[8] = dose: 25.0 mg/kg/injection, schedule: Q01DX009 (ip), vehicle: saline
[9] = dose: 50.0 mg/kg/injection, schedule: Q01DX009 (ip), vehicle: saline
[10] = dose: 50.0 mg/kg/injection, schedule: Q01DX009 (ip), vehicle: saline with Tween-80
[11] = dose: 100.0 mg/kg/injection, schedule: Q01DX009 (ip), vehicle: saline with Tween-80
[12] = dose: 200.0 mg/kg/injection, schedule: Q01DX009 (ip), vehicle: saline with Tween-80
[13] = dose: 12.5 mg/kg/injection, schedule: Q01DX005 (ip), vehicle: Klucel (hydroxypropylcellulose) (HPC)
[14] = dose: 25.0 mg/kg/injection, schedule: Q01DX005 (ip), vehicle: Klucel (hydroxypropylcellulose) (HPC)
[15] = dose: 50.0 mg/kg/injection, schedule: Q01DX005 (ip), vehicle: saline with Tween-80
[16] = dose: 100.0 mg/kg/injection, schedule: Q01DX005 (ip), vehicle: saline with Tween-80
[17] = dose: 200.0 mg/kg/injection, schedule: Q01DX005 (ip), vehicle: saline with Tween-80
[18] = dose: 12.5 mg/kg/injection, schedule: Q01DX009 (ip), vehicle: saline with Tween-80
[19] = dose: 25.0 mg/kg/injection, schedule: Q01DX009 (ip), vehicle: saline with Tween-80
[20] = dose: 100.0 mg/kg/injection, schedule: Q04DX003 (ip), vehicle: saline with Tween-80
[21] = dose: 200.0 mg/kg/injection, schedule: Q04DX003 (ip), vehicle: saline with Tween-80
[22] = dose: 25.0 mg/kg/injection, schedule: Q04DX003 (ip), vehicle: saline with Tween-80
[23] = dose: 50.0 mg/kg/injection, schedule: Q04DX003 (ip), vehicle: saline with Tween-80
[24] = dose: 6.25 mg/kg/injection, schedule: Q01DX005 (ip), vehicle: saline with Tween-80
[25] = dose: 12.5 mg/kg/injection, schedule: Q01DX005 (ip), vehicle: saline with Tween-80
[26] = dose: 25.0 mg/kg/injection, schedule: Q01DX005 (ip), vehicle: saline with Tween-80

Measured: T/C

O=C(O)C(=O)O.O=C([O-])C(=O)O.O=C([O-])C(=O)O.O=C([O-])C(=O)[O-].[K+].[U]
inactive: dose: 1.56 mg/kg/injection, schedule: Q01DX009 (ip), vehicle: saline 100 % of control | dose: 3.13 mg/kg/injection, schedule: Q01DX009 (ip), vehicle: saline 100 % of control

COC(=O)c1ccc(/C=C/C(=O)c2ccc(C(=O)OC)cc2)cc1
inactive: [1] 106 % of control | [2] 101 % of control | [3] 98 % of control

COc1ccc(N(C)C(=S)c2ccccc2)cc1
inactive: [4] 103 % of control | [5] 96 % of control | [6] 92 % of control

Cc1cc(C)c(N=Cc2cccs2)c(C)c1
inactive: [7] 107 % of control | [8] 111 % of control | [9] 101 % of control and 106 % of control | dose: 200.0 mg/kg/injection, schedule: Q01DX009 (ip), vehicle: saline 92 % of control

CN(C)c1ccc(C=C2c3ccccc3C(=O)c3ccccc32)c(Cl)c1
inactive: [10] 100 % of control | [11] 91 % of control | [12] 94 % of control

CC(=O)O/C(C#N)=C1\CCCC\C1=C(\C#N)OC(C)=O
inactive: dose: 6.25 mg/kg/injection, schedule: Q01DX001 (ip), vehicle: saline with Tween-80 103 % of control | dose: 12.5 mg/kg/injection, schedule: Q01DX001 (ip), vehicle: saline with Tween-80 107 % of control | dose: 25.0 mg/kg/injection, schedule: Q01DX001 (ip), vehicle: saline with Tween-80 103 % of control

CCN1CCC[C@]2(C)[C@H]3CC[C@@]4(C)[C@@H](CC[C@]4(C)O)[C@@H]3CC[C@@H]12
inactive: [13] 101 % of control | [14] 97 % of control | [4] 93 % of control and 95 % of control

CCN(CC)CCCC(C)Sc1ccnc2cc(Cl)ccc12 (stereo not drawn)
inactive: [15] 95 % of control | [16] 101 % of control | [17] 106 % of control

O=C1/C(=C/C=C/c2ccccc2)C(=S)SN1Cc1ccco1
inactive: dose: 50.0 mg/kg/injection, schedule: Q01DX009 (ip), vehicle: Klucel (hydroxypropylcellulose) (HPC) 96 % of control | dose: 100.0 mg/kg/injection, schedule: Q01DX009 (ip), vehicle: Klucel (hydroxypropylcellulose) (HPC) 97 % of control

O=[N+]([O-])c1c(Br)sc(Br)c1[N+](=O)[O-]
inactive: [18] 104 % of control | [19] 95 % of control | [10] 95 % of control

Cc1nn(-c2ccccc2)c2c1c(=O)c1ccccc1c(=O)n2C
inactive: [4] 105 % of control | [5] 104 % of control | [6] 94 % of control

Clc1ccc(C=NCCN=Cc2ccc(Cl)c(Cl)c2)cc1Cl
inactive: [20] 90 % of control | [21] 95 % of control | dose: 400.0 mg/kg/injection, schedule: Q04DX003 (ip), vehicle: saline with Tween-80 90 % of control

O=C(c1cc(Nc2ccnc3cc(Cl)ccc23)ccc1O)N1CCC(O)(c2ccccc2)CC1
inactive: [15] 102 % of control | [16] 108 % of control | [17] 109 % of control

COc1ccc2c(c1)NC(c1ccc(C(N)=S)cc1)N2 (stereo not drawn)
inactive: dose: 100.0 mg/kg/injection, schedule: Q04DX002 (ip), vehicle: saline with Tween-80 89 % of control | dose: 200.0 mg/kg/injection, schedule: Q04DX002 (ip), vehicle: saline with Tween-80 87 % of control | dose: 400.0 mg/kg/injection, schedule: Q04DX002 (ip), vehicle: saline with Tween-80 88 % of control

C/C(N)=C\C#N
inactive: [22] 100 % of control | [23] 101 % of control | [20] 98 % of control and 97 % of control

Cc1cc(Br)c(NC(=S)SCc2ccc(Cl)cc2)cc1C
inactive: dose: 50.0 mg/kg/injection, schedule: Q01DX009 (ip), vehicle: suspension in saline 101 % of control | dose: 100.0 mg/kg/injection, schedule: Q01DX009 (ip), vehicle: suspension in saline 107 % of control | dose: 200.0 mg/kg/injection, schedule: Q01DX009 (ip), vehicle: suspension in saline 98 % of control

Cc1ccc(S(=O)(=O)OCCOCCOCCOCCOCCOCCOCCOCCOCCOCCOCCOCCOCCOCCOS(=O)(=O)c2ccc(C)cc2)cc1
inactive: dose: 37.5 mg/kg/injection, schedule: Q01DX001 (ip), vehicle: saline with Tween-80 101 % of control | dose: 75.0 mg/kg/injection, schedule: Q01DX001 (ip), vehicle: saline with Tween-80 104 % of control | dose: 150.0 mg/kg/injection, schedule: Q01DX001 (ip), vehicle: saline with Tween-80 102 % of control

c1cc[c]([GeH][c]2ccccc2)cc1.c1cc[c]([GeH][c]2ccccc2)cc1
inactive: [13] 101 % of control | [14] 97 % of control | [4] 100 % of control and 101 % of control | [5] 99 % of control | [6] 100 % of control

O=C1c2cccc3cc([N+](=O)[O-])cc(c23)C(=O)N1Cc1cccnc1
inactive: [24] 100 % of control | [25] 96 % of control | [26] 92 % of control | [16] 92 % of control | [17] 101 % of control

CSc1nc2c(Br)cnn2c(=O)[nH]1
inactive: [1] 94 % of control | [2] 101 % of control | [3] 100 % of control

COC(=O)C1(C)CCCC2(C)C1CCC13C=C(C(C)C)C(CC1C(=O)O)CC23 (stereo not drawn)
inactive: [20] 91 % of control | [21] 100 % of control

O=C1C=C(c2ccccc2)CC1
inactive: [19] 88 % of control | [10] 100 % of control | [11] 111 % of control

Cc1ccc(C(C)C)c(OCCN)c1
inactive: dose: 6.25 mg/kg/injection, schedule: Q01DX009 (ip), vehicle: saline 112 % of control | [7] 110 % of control | [8] 107 % of control | [9] 94 % of control

CCOC(=O)C(C(=O)OCC)c1nc[nH]c1[N+](=O)[O-]
inactive: [22] 108 % of control | [23] 104 % of control | [20] 100 % of control and 97 % of control

CCCCOc1cc(C(=O)O)ccc1[N+](=O)[O-]
inactive: [23] 100 % of control | [21] 104 % of control

O=C1C=CC(=O)N1c1ccccc1[N+](=O)[O-]
inactive: dose: 6.0 mg/kg/injection, schedule: Q01DX009 (ip), vehicle: saline with Tween-80 91 % of control

O=[N+]([O-])c1ccc(-c2nnn(C3CC3)c2N2CCCCC2)cc1
inactive: dose: 100.0 mg/kg/injection, schedule: Q04DX002 (ip), vehicle: Klucel (hydroxypropylcellulose) (HPC) 100 % of control | dose: 200.0 mg/kg/injection, schedule: Q04DX002 (ip), vehicle: Klucel (hydroxypropylcellulose) (HPC) 96 % of control | dose: 400.0 mg/kg/injection, schedule: Q04DX002 (ip), vehicle: Klucel (hydroxypropylcellulose) (HPC) 101 % of control

CC(C)(O)C1C2OC(=O)C1C1(O)CC3OC34C(=O)OC2C14C (stereo not drawn)
inactive: [18] 100 % of control | [19] 100 % of control | dose: 33.0 mg/kg/injection, schedule: Q04DX003 (ip), vehicle: saline with Tween-80 104 % of control | [10] 100 % of control | [23] 109 % of control

CC1=Nc2ccccc2S/C1=C(/C)NN
inactive: [1] 104 % of control | [2] 104 % of control | [3] 95 % of control

O/N=C/c1ccc2c(c1)OCO2
inactive: [10] 99 % of control | [11] 100 % of control | [12] 87 % of control

[Cl][Ni][Cl].c1ccc2[nH]cnc2c1.c1ccc2[nH]cnc2c1
inactive: [24] 95 % of control | [25] 90 % of control | [26] 92 % of control

O=C(OC(C(=O)O)c1ccccc1)c1ccc([N+](=O)[O-])cc1 (stereo not drawn)
inactive: dose: 75.0 mg/kg/injection, schedule: Q01DX001 (ip), vehicle: Klucel (hydroxypropylcellulose) (HPC) 89 % of control | dose: 150.0 mg/kg/injection, schedule: Q01DX001 (ip), vehicle: Klucel (hydroxypropylcellulose) (HPC) 103 % of control | dose: 300.0 mg/kg/injection, schedule: Q01DX001 (ip), vehicle: Klucel (hydroxypropylcellulose) (HPC) 95 % of control
